Data as given in PubChem BioAssay (NCI).
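Cells were grown in 96-well plates and exposed to each compound for 48 hours at five concentrations; endpoints were interpolated linearly between bracketing concentrations, or set to the highest concentration if not reached. At the GI50, growth is halved. TGI denotes the concentration required for complete inhibition of growth.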

Legend:
Assay in all cases: DTP human tumour cell line panel, 48 h
LXFL 529 NSCLC = tested on: LXFL 529 NSCLC
DLD-1 colon = tested on: DLD-1 colon
KM20L2 colon = tested on: KM20L2 colon
DMS 114 small cell lung = tested on: DMS 114 small cell lung
RXF-631 renal = tested on: RXF-631 renal

Row | SMILES | TGI (LXFL 529 NSCLC) | TGI (DLD-1 colon) | TGI (KM20L2 colon) | TGI (DMS 114 small cell lung) | TGI (RXF-631 renal) | GI50 (DLD-1 colon) | GI50 (KM20L2 colon)
1 | COC(=O)C(=O)C(C(=O)OC)C(=O)C(=O)Nc1cc(Cl)c(C)cc1S(=O)(=O)O (stereo unspecified) | > 100 µM | > 100 µM | > 100 µM | > 100 µM |  |  | 
2 | Cc1ccc(S(=O)(=O)c2ccc(C)cc2[N+](=O)[O-])c([N+](=O)[O-])c1 | > 100 µM |  | > 100 µM | > 100 µM |  |  | 
3 | Cc1c(-c2coc(-c3ccc([N+](=O)[O-])cc3)n2)c(=O)n(-c2ccccc2)n1C | > 100 µM | > 100 µM | > 100 µM | > 100 µM |  |  | 
4 | COP12(OC)NC(=O)OC1(C(F)(F)F)c1ccccc1O2 (stereo unspecified) | > 100 µM | > 100 µM |  | > 100 µM |  |  | 
5 | O=C(O)C12C3CCC(C3)C1(C(=O)O)C1CCC2C1 (stereo unspecified) | > 100 µM | 64.1 µM | > 100 µM | > 100 µM | > 100 µM |  | 
6 | N#Cc1ccc(C2OCC3CC=CCC3CO2)cc1 (stereo unspecified) | > 100 µM | > 100 µM | > 100 µM | > 100 µM | > 100 µM |  | 
7 | O=c1cccccc1[O-].O=c1cccccc1[O-].O=c1cccccc1[O-].[Nd+3] |  | > 100 µM | > 100 µM |  |  | 36.4 µM | 31.7 µM
8 | CN1CCS(=O)(=O)NC(Cc2ccccc2)C(=O)N2CCCC2C1=O (stereo unspecified) | > 100 µM | > 100 µM | > 100 µM | > 100 µM |  |  | 
9 | COc1ccccc1/C=C1\CCC(Cc2ccccc2)(CN(C)C)C1=O (stereo unspecified) | > 52.3 µM | > 80.4 µM | 2.34 µM | > 36.2 µM | 9.92 µM |  | 
10 | c1ccc2cc(C3NCCc4[nH]cnc43)ccc2c1 (stereo unspecified) | > 100 µM | > 100 µM | > 100 µM | > 100 µM |  |  | 
11 | O=C1C(Cl)C(c2ccc(O)cc2)N1n1cnc2ccccc2c1=O (stereo unspecified) | 39.5 µM | 55.3 µM | > 100 µM | > 81 µM |  |  | 
12 | N#CCCC(C#N)(C#N)CCC#N | > 100 µM |  | > 100 µM | > 100 µM |  |  | 
13 | Cc1ccccc1N(CCC#N)C1=NN(C(=O)CC(=O)Nc2ccc(Cl)cc2)C(c2ccccc2)C1 (stereo unspecified) | > 100 µM | > 100 µM | > 100 µM | > 100 µM | > 100 µM |  | 
14 | COc1cc2ccnc(C#N)c2cc1OCc1ccccc1 | > 100 µM | > 100 µM | > 100 µM |  |  |  | 
15 | c1cc2c(cc1C1OCC3C(c4ccc5c(c4)OCO5)OCC13)OCO2 (stereo unspecified) | > 100 µM | > 100 µM | > 100 µM | > 100 µM |  |  | 
16 | CN1CCCS/C1=C1/SC(=S)N(c2ccccc2)C1=O | > 100 µM | > 100 µM | > 100 µM | > 100 µM | > 100 µM |  | 
17 | COc1ccc(S(=O)(=O)N/N=C(\C)CN2C(=O)c3ccccc3C2=O)cc1OC | > 100 µM | > 100 µM | > 100 µM | > 100 µM |  |  | 
18 | CN(C)CC1(Cc2ccccc2)CC/C(=C\c2ccccc2)C1=O (stereo unspecified) | > 100 µM | > 100 µM | 35 µM | 80.1 µM | 83.7 µM |  | 
19 | O=C1CCC(=O)c2ccccc2N1 | > 100 µM | > 100 µM | > 100 µM | > 100 µM |  |  | 
20 | O=C1c2ccccc2C(=O)c2c1oc1cc(O)c(Cl)cc21 | > 46.3 µM | 19.5 µM | 6.79 µM | 6.1 µM |  |  | 
21 | COc1cc(C2C(C(=O)NCc3ccccc3)=C(C)NC(C)=C2C(=O)NCc2ccccc2)ccc1O | > 100 µM |  | > 100 µM | > 100 µM | > 100 µM |  | 
